Reference: US7892777B2, “Methods for measuring whether a treatment affects RPTP-κ activity” (The Regents Of The University Of Michigan, priority 2007, dated 2011)

Columns and labels:
[1] = system: EGFR; experiment: EGFR tyrosine phosphorylation (EGFR activation) in primary human keratinocytes; format: cell-based; settings: human primary keratinocytes treated before UV irradiation (extracts: 16 hours, 50 mJ/cm2, 30 minutes post irradiation)
Protocol: With reference to FIG. 3, UV-induced EGFR tyrosine phosphorylation is shown to be ligand-independent and mediated by oxidative inhibition of RPTP-κ in primary human keratinocytes. Shown in panel A, primary human keratinocytes were treated with control IgG1 or EGFR antibody LA1 (1 μg/mL), which blocks ligand binding, as indicated. Cells were then treated with vehicle (CTRL), or EGF (10 ng/mL) for 10 min, or UV irradiated (50 mJ/cm^2) and harvested 15 min post irradiation. Whole cell lysates were subjected to Western analysis for total EGFR and tyrosine-phosphorylated EGFR. Levels of immunoreactive EGFR were quantified by chemifluorescent detection. Results are mean±S.E. of three independent experiments; *, p<0.05. […] Shown in panel B, human keratinocytes were UV-irradiated (50 mJ/cm^2), and whole cell lysates were prepared at the indicated times. RPTP-κ and β-actin (internal control) were detected by Western blot, and quantified by chemifluorescent detection. Results are mean±S.E. of three independent experiments; *, p<0.05. […] Shown in panel C, primary human keratinocytes were mock (No UV) or UV irradiated (50 mJ/cm^2), and whole cell lysates were prepared 5 min post-UV irradiation. RPTP-κ was immunoprecipitated, and phosphatase activity was determined using a tyrosine-phosphorylated EGFR peptide as substrate. Phosphatase activity was normalized to RPTP-κ protein content in the immunoprecipitates, which was quantified by Western analysis using chemifluorescent detection. Results are mean±S.E. of three independent experiments; *, p<0.05. […] Endogenous RPTP-κ was immunoprecipitated, and assayed for activity in buffer containing dithiothreitol to reduce oxidized RPTP-κ to restore enzymatic activity, using a tyrosine-phosphorylated EGFR peptide as substrate. Results are mean±S.E. of three independent experiments; *, p<0.05. Shown in panel E, RPTP-κ was immunoprecipitated from mock or UV-irradiated human keratinocytes, and the immunoprecipitates were treated with DTT to reduce oxidized RPTP-κ, as described above for panel C. Reduced RPTP-κ was irreversibly oxidized by pervanadate, and oxidized (OX-PTP) and total RPTP-κ were detected by Western blot, using specific antibodies. Results are mean±S.E. of three independent experiments; *, p<0.05.
With reference to FIG. 4, knockdown of RPTP-κ is shown to increase EGFR tyrosine phosphorylation in primary human keratinocytes. Shown in panel A, human keratinocytes were transfected with scrambled control (CTRL) or RPTP-κ siRNA. Two days post-transfection, whole cell lysates were prepared and analyzed for RPTP-κ and β-actin (internal control) proteins by Western blot. Results are mean±S.E. of three independent experiments; *, p<0.05. […] Shown in panel B, two days after transfection with control (CTRL) or RPTP-κ siRNA, keratinocytes were UV irradiated (50 mJ/cm2). Whole cell lysates were prepared 15 min post-UV irradiation and analyzed for total EGFR and tyrosine-phosphorylated EGFR Western blot. Results are mean±S.E. of three independent experiments; *, p<0.05. […] Shown in panel C, keratinocytes were transfected with control (CTRL) or RPTP-κ siRNA and treated with control IgG or neutralizing anti-EGFR antibody. Two days post-transfection, whole cell lysates were prepared and total and tyrosine-phosphorylated EGFR were quantified by ELISA. Results are mean±S.E. of three independent experiments; *, p<0.05.
With reference to FIG. 7, primary adult human keratinocytes were treated with Laminaria japonica extract (LJE) or Porphyra haitanensis extract (PHE) for 16 hours prior to exposure to ultraviolet (UV) irradiation (50 mJ/cm2). Cells were analyzed for phosphorylated epidermal growth factor receptor (EGFR) and total EGFR by Western analyses 30 minutes post irradiation. […]

[2] = target: RPTP-κ glutathione S-transferase fusion protein (Homo sapiens, UniProt Q15262); settings: 100 μM H2O2, room temperature 30 min; FIG. 1A
Sequence of RPTP-κ glutathione S-transferase fusion protein (Q15262 775-1439 limits assumed): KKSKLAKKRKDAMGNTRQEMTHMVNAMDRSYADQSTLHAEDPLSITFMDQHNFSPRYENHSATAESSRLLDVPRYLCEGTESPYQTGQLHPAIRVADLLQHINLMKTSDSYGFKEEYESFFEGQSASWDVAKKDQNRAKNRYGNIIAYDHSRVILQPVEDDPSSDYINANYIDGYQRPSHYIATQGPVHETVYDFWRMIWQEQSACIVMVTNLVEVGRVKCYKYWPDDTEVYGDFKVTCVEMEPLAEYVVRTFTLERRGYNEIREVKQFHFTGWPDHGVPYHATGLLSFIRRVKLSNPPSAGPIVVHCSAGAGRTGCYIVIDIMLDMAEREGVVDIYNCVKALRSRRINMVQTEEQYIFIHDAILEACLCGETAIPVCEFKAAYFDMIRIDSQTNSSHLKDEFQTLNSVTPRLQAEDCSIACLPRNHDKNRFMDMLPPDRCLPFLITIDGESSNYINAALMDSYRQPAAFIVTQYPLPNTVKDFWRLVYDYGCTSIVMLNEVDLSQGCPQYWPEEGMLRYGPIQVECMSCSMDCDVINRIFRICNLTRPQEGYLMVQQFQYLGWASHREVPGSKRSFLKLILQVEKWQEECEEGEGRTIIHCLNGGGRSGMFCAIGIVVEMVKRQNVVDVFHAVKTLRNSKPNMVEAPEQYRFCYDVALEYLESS

[3] = target: purified EGFR (Homo sapiens, UniProt P00533); settings: EGFR with EGF and ATP/Mg2+, H2O2 at room temperature 30 min; FIG. 1B
Sequence of purified EGFR (P00533 25-1210): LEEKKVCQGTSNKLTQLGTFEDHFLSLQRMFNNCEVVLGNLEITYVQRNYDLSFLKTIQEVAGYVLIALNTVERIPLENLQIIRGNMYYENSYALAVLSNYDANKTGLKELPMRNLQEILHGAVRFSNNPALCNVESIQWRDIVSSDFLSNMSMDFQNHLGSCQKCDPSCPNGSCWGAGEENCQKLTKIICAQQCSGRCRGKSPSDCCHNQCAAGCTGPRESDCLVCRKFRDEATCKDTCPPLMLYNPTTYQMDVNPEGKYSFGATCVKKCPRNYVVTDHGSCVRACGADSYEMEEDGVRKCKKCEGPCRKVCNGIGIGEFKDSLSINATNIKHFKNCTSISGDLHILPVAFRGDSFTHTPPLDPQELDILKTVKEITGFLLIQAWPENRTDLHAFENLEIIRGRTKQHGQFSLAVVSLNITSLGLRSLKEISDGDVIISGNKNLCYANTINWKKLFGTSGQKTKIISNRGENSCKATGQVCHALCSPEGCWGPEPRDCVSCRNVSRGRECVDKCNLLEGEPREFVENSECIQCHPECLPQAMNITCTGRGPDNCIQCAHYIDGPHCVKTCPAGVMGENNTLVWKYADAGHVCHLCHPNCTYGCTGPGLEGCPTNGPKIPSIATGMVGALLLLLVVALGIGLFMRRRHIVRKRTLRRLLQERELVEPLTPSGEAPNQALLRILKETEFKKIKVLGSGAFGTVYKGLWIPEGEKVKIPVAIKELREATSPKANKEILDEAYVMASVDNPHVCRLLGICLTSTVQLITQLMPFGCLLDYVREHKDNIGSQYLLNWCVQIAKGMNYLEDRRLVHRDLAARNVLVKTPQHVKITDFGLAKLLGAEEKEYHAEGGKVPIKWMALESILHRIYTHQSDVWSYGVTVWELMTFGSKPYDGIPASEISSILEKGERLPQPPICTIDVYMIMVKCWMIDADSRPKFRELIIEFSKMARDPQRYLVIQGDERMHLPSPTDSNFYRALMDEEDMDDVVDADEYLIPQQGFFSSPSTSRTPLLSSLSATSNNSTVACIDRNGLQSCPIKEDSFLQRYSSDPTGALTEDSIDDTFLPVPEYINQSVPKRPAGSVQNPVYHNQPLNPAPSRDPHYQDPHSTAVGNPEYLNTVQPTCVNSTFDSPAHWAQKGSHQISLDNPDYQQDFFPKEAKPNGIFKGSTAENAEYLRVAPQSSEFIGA

[4] = target: RPTP-κ and EGFR (Homo sapiens, UniProt Q15262); settings: purified RPTP-κ and EGFR together, H2O2 100 μM, room temperature 30 min; FIG. 1C
Sequence of RPTP-κ and EGFR (Q15262 775-1439 limits assumed): as the sequence (Q15262 775-1439 limits assumed) above

Structure (SMILES)	UV irradiation-induced EGFR activation [1]	also measured
O=C(/C=C/c1ccc(O)c(O)c1)OCCc1ccccc1 [CAPE, Caffeic acid phenethyl ester]	no effect	–
OO [H2O2, hydrogen peroxide]	–	loss of RPTP-κ activity [2]: 80%; effect on tyrosine phosphorylation of purified EGFR [3]: no direct effect; EGFR tyrosine phosphorylation [4]: increased to the level observed in the absence of RPTP-κ
CC1=NN(c2ccccc2)C(=O)C1 [MCI-186, 3-Methyl-1-phenyl-2-pyrazolin-5-one]	no effect	–
COC1=C(OC)C(=O)C(CCCCCCCCCC[P+](c2ccccc2)(c2ccccc2)c2ccccc2)=C(C)C1=O [Mito Q10]	no effect	–
CC(=O)N[C@@H](CS)C(=O)O [N-Acetyl cysteine]	no effect	–
Oc1ccc(C=Cc2cc(O)cc(O)c2)cc1 [Resveratrol]	no effect	UV irradiation-induced EGFR activation ([1]; listed as resveratrol): did not exhibit activity
CC1=C(C)C(=O)C(CC[C@](C)(O)CCC[C@H](C)CCC[C@H](C)CCCC(C)C)=C(C)C1=O [Tocopherylquinone, d-alpha]	no effect	–
